Data on 2 compounds can be found in ChEMBL document CHEMBL1201862, “PubChem BioAssay data set” (2004).

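Compound exposure: 48 hours, 5 concentrations, 96-well plates. Here, GI50 denotes the concentration required for 50% inhibition of growth.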 Calls of active or inactive are those of the source. No stated cut-off is given here; in the data, active = GI50 up to about 1.1 µM and inactive = higher. A value given as a limit tells only on which side of the number the result lay.

Some test systems named below: SNB-75; M14; A498; MDA-N; SN12C; IGROV-1; CCRF-CEM; HOP-92; SK-MEL-5; MCF7; SK-MEL-2; SF-268; NCI-H226; UO-31; SR; CAKI-1; UACC-62; Hs-578T; Malme-3M; DLD-1.
Holding throughout (assay): NCI anticancer screen, dose series, 48 h

For `C=C1[C@@H](C)[C@H]2[C@H](Cc3ccccc3)NC(=O)[C@]23OC(=O)/C=C/[C@H](O)CCC[C@@H](C)C/C=C/[C@H]3[C@@H]1O`, the GI50 with SNB-75 was 0.0748 µM (active); in the assay with M14 it was > 100 µM (inactive); in the assay on A498 it was 1.83 µM (inactive); in the assay on MDA-N, 14.2 µM (inactive); with SN12C, 3.87 µM (inactive); with IGROV-1 it was 6.59 µM (inactive). Also, the GI50 is 2.37 µM (inactive) in the assay on CCRF-CEM; 0.436 µM (active) in the assay with HOP-92; 9.53 µM (inactive) in the assay on SK-MEL-5; 16.6 µM (inactive) with MCF7; 24.2 µM (inactive) in the assay on SK-MEL-2; 2.55 µM (inactive) in the assay with SF-268. Also, the GI50 with NCI-H226 was 1.18 µM (inactive); in the assay on UO-31 it was 0.258 µM (active); in the assay on SR it was > 100 µM (inactive); with CAKI-1 it was 0.233 µM (active); with UACC-62, 22.8 µM (inactive); in the assay with Hs-578T, 5.89 µM (inactive). The GI50 was 16.3 µM (inactive) in the assay with Malme-3M and 0.828 µM (active) with DLD-1.
Turning to `NC(=O)c1c[se]c(C2OC(CO)C(O)C2O)n1` (stereo not given), the GI50 with SNB-75 was > 59 µM (inactive); in the assay with M14, 1.63 µM (inactive); with A498, 44 µM (inactive); in the assay with MDA-N, 36.4 µM (inactive); in the assay with SN12C it was > 84.7 µM (inactive); with IGROV-1, 4.98 µM (inactive). In addition, the GI50 with CCRF-CEM is 0.875 µM (active); in the assay on HOP-92 it was > 100 µM (inactive); in the assay with SK-MEL-5, 10.3 µM (inactive); in the assay on MCF7, 8.67 µM (inactive); in the assay on SK-MEL-2, > 100 µM (inactive); with SF-268, 6.84 µM (inactive). For the same compound, the GI50 in the assay with NCI-H226 is > 58.6 µM (inactive); in the assay on UO-31, 6.5 µM (inactive); in the assay with SR, 8.61 µM (inactive); in the assay with CAKI-1, 6.93 µM (inactive); with UACC-62 it was 12.3 µM (inactive); with Hs-578T it was > 100 µM (inactive). Besides, the GI50 in the assay on Malme-3M is > 100 µM (inactive); in the assay on DLD-1, 1.88 µM (inactive).
